Data reported in PubChem BioAssay (NCI).
“And” between values parts separate entries of the source, which are not always exact repeats. Equal entries are not always repeated.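 Tested at 5 concentrations; 48 h exposure; 96-well plates; endpoints linearly interpolated, else capped at highest concentration. The concentration for 50% growth inhibition is given as GI50. TGI denotes the concentration required for complete inhibition of growth.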

Assays:
Assay in all cases: growth of human tumour cells (NCI), 48 h
A498 renal = system: A498 renal
HCT-15 colon = system: HCT-15 colon
HL-60(TB) leukemia = system: HL-60(TB) leukemia
MALME-3M melanoma = system: MALME-3M melanoma
MDA-MB-435 = system: MDA-MB-435
OVCAR-4 ovarian = system: OVCAR-4 ovarian
OVCAR-8 ovarian = system: OVCAR-8 ovarian
SNB-19 CNS = system: SNB-19 CNS
T-47D breast = system: T-47D breast
UO-31 renal = system: UO-31 renal

## COC(NC(N)=O)C(=O)O (centres undefined)
A498 renal
  TGI: > 100 µM
HCT-15 colon
  TGI: > 100 µM
HL-60(TB) leukemia
  TGI: > 100 µM
MALME-3M melanoma
  TGI: > 100 µM
MDA-MB-435
  TGI: > 100 µM
OVCAR-4 ovarian
  TGI: > 100 µM
OVCAR-8 ovarian
  TGI: > 100 µM
SNB-19 CNS
  TGI: > 100 µM
T-47D breast
  TGI: > 100 µM
UO-31 renal
  TGI: > 100 µM

## CC(CN1CC(=O)NC(=O)C1)N1CC(=O)NC(=O)C1 (centres undefined)
A498 renal
  TGI: > 750 µM
HCT-15 colon
  TGI: > 750 µM
HL-60(TB) leukemia
  TGI: 690 µM
MALME-3M melanoma
  TGI: 355 µM
MDA-MB-435
  TGI: > 750 µM
OVCAR-4 ovarian
  TGI: > 750 µM
OVCAR-8 ovarian
  TGI: > 750 µM
SNB-19 CNS
  TGI: > 750 µM
T-47D breast
  TGI: > 750 µM
UO-31 renal
  TGI: > 750 µM

## c1cc(CN2CCCNCCNCCCNCC2)ccc1CN1CCCNCCNCCCNCC1
A498 renal
  GI50: > 100 µM
  TGI: > 100 µM
HCT-15 colon
  GI50: > 100 µM
  TGI: > 100 µM
HL-60(TB) leukemia
  GI50: > 100 µM
  TGI: > 100 µM
MALME-3M melanoma
  GI50: > 100 µM
  TGI: > 100 µM
MDA-MB-435
  GI50: > 100 µM
  TGI: > 100 µM
OVCAR-4 ovarian
  GI50: > 100 µM
  TGI: > 100 µM
OVCAR-8 ovarian
  GI50: > 100 µM
  TGI: > 100 µM
SNB-19 CNS
  GI50: > 100 µM
  TGI: > 100 µM
T-47D breast
  GI50: > 100 µM
  TGI: > 100 µM
UO-31 renal
  GI50: > 100 µM
  TGI: > 100 µM

## C=C(C)[C@@H]1C/C=C(/CO)CC[C@H]2O[C@]2(C)CC/C=C(\C)CC1
A498 renal
  GI50: 10.4 µM
  TGI: 24.3 µM
HCT-15 colon
  GI50: 23.6 µM
  TGI: 51.7 µM
HL-60(TB) leukemia
  GI50: 8.12 µM
  TGI: 24 µM
MALME-3M melanoma
  GI50: 12.9 µM
  TGI: 28.5 µM
MDA-MB-435
  GI50: 13.5 µM
  TGI: 29.2 µM
OVCAR-4 ovarian
  GI50: 16.3 µM
  TGI: 34.1 µM
OVCAR-8 ovarian
  GI50: 24 µM
  TGI: 58.4 µM
SNB-19 CNS
  GI50: 18 µM
  TGI: 33.8 µM
T-47D breast
  GI50: 17.4 µM
  TGI: 47.8 µM
UO-31 renal
  GI50: 13.6 µM
  TGI: 29.9 µM

## Nc1ncnc2c1c(-c1ccc(Oc3ccccc3)cc1)nn2C[C@H]1SSC[C@@H]1O
A498 renal
  GI50: 1.66 µM
  TGI: 4.44 µM
HCT-15 colon
  GI50: 0.622 µM
  TGI: 16.4 µM
HL-60(TB) leukemia
  GI50: 1.52 µM
  TGI: 4.84 µM
MALME-3M melanoma
  GI50: 0.826 µM
  TGI: 3.94 µM
MDA-MB-435
  GI50: 0.162 µM
  TGI: 0.324 µM
OVCAR-4 ovarian
  GI50: 1.44 µM
  TGI: 19.8 µM
OVCAR-8 ovarian
  GI50: 0.523 µM
  TGI: 15.9 µM
SNB-19 CNS
  GI50: 1.4 µM
  TGI: 12 µM
T-47D breast
  GI50: 0.685 µM
  TGI: 3.63 µM
UO-31 renal
  GI50: 1.68 µM
  TGI: 5.7 µM

## CCCCC[C@H]1CC=C2C(=O)C=C[C@@H]2CC=CCCCC(=O)O[C@@H](CCCCC)CC=C2C(=O)C=C[C@@H]2CC=CCCCC(=O)O[C@@H](CCCCC)CC=C2C(=O)C=C[C@@H]2CC=CCCCC(=O)O1
A498 renal
  GI50: 0.75 µM
  TGI: 2.41 µM
HCT-15 colon
  GI50: 0.718 µM
  TGI: 5.73 µM
HL-60(TB) leukemia
  GI50: 0.243 µM
  TGI: 0.76 µM
MALME-3M melanoma
  GI50: 0.295 µM
  TGI: > 8.75 µM
MDA-MB-435
  GI50: 0.183 µM
  TGI: 0.526 µM
OVCAR-4 ovarian
  GI50: 0.317 µM
  TGI: > 8.75 µM
OVCAR-8 ovarian
  GI50: 0.277 µM
  TGI: > 8.75 µM
SNB-19 CNS
  GI50: 0.55 µM
  TGI: > 8.75 µM
T-47D breast
  GI50: 0.195 µM
  TGI: 0.713 µM
UO-31 renal
  GI50: 0.457 µM
  TGI: 1.63 µM

## O=C(O)C1CCN(Cc2oc(CO)cc(=O)c2O)C1 (centres undefined)
A498 renal
  TGI: > 100 µM
HCT-15 colon
  TGI: > 100 µM
HL-60(TB) leukemia
  TGI: > 100 µM
MALME-3M melanoma
  TGI: > 100 µM
MDA-MB-435
  TGI: > 100 µM
OVCAR-4 ovarian
  TGI: > 100 µM
OVCAR-8 ovarian
  TGI: > 100 µM
SNB-19 CNS
  TGI: > 100 µM
T-47D breast
  TGI: > 100 µM
UO-31 renal
  TGI: > 100 µM

## Cc1cn(CCC(N)C(=O)O)c(=O)[nH]c1=O (centres undefined)
A498 renal
  TGI: > 100 µM
HCT-15 colon
  TGI: > 100 µM
HL-60(TB) leukemia
  TGI: > 100 µM
MALME-3M melanoma
  TGI: > 100 µM
MDA-MB-435
  TGI: > 100 µM
OVCAR-4 ovarian
  TGI: > 100 µM
OVCAR-8 ovarian
  TGI: > 100 µM
SNB-19 CNS
  TGI: > 100 µM
T-47D breast
  TGI: > 100 µM
UO-31 renal
  TGI: > 100 µM

## COc1cc(-c2nn(-c3cccc(NC(=O)NCCNS(=O)(=O)c4ccc(Cl)cc4)c3)cc2-c2ccncc2)ccc1Cl
A498 renal
  GI50: 0.578 µM
  TGI: 4.31 µM
HCT-15 colon
  GI50: 2.45 µM
  TGI: 8.55 µM
HL-60(TB) leukemia
  GI50: 0.466 µM
  TGI: > 100 µM
MALME-3M melanoma
  GI50: 0.588 µM
  TGI: 2.87 µM
MDA-MB-435
  GI50: 0.207 µM
  TGI: 0.515 µM
OVCAR-4 ovarian
  GI50: 1.03 µM
  TGI: 92 µM
OVCAR-8 ovarian
  GI50: 1.71 µM
  TGI: 8.48 µM
SNB-19 CNS
  GI50: 1.16 µM
  TGI: > 100 µM
T-47D breast
  GI50: 0.646 µM
  TGI: 18.1 µM
UO-31 renal
  GI50: 2.45 µM
  TGI: > 100 µM

## O=C(Nc1ccc2ncnc(Nc3ccc(Oc4cccc(F)c4)c(Cl)c3)c2c1)c1ccc(CN2CCOCC2)cc1
A498 renal
  GI50: 3.28 µM
  TGI: 65.6 µM
HCT-15 colon
  GI50: 2.49 µM
  TGI: 8.85 µM
HL-60(TB) leukemia
  GI50: 2.69 µM
  TGI: 7.88 µM
MALME-3M melanoma
  GI50: 2.01 µM
  TGI: 5.2 µM
MDA-MB-435
  GI50: 2.18 µM
  TGI: 5.39 µM
OVCAR-4 ovarian
  GI50: 2.53 µM
  TGI: 8.52 µM
OVCAR-8 ovarian
  GI50: 2.34 µM
  TGI: 7.69 µM
SNB-19 CNS
  GI50: 3.53 µM
  TGI: > 100 µM
T-47D breast
  GI50: 1.09 µM
  TGI: 4.2 µM
UO-31 renal
  GI50: 1.81 µM
  TGI: 8.59 µM

## CN(C)C(=S)/N=c1\ssc(=S)n1Cc1cccs1
A498 renal
  TGI: > 100 µM
HCT-15 colon
  TGI: > 100 µM
HL-60(TB) leukemia
  TGI: 13.9 µM
MALME-3M melanoma
  TGI: 74.7 µM
MDA-MB-435
  TGI: 2.71 µM
OVCAR-4 ovarian
  TGI: > 91.7 µM
OVCAR-8 ovarian
  TGI: 52.9 µM
SNB-19 CNS
  TGI: > 90.9 µM
T-47D breast
  TGI: > 100 µM
UO-31 renal
  TGI: > 100 µM

## COC1CC(C)C(OC)c2cc(O)cc(c2O)NC(=O)/C(C)=C/C=C\C(C)C(OC(N)=O)/C(C)=C\C(C)C1OC (centres undefined)
A498 renal
  GI50: 18.4 µM
  TGI: 38.1 µM and 14.8 µM
HCT-15 colon
  GI50: 4.91 µM
  TGI: 11.9 µM and 12.7 µM
HL-60(TB) leukemia
  GI50: 0.075 µM and 0.227 µM and 0.0937 µM
  TGI: 1.48 µM and 0.578 µM
MALME-3M melanoma
  GI50: 0.749 µM and 0.503 µM
  TGI: 4.89 µM and 7.39 µM
MDA-MB-435
  TGI: 32.2 µM and 6.1 µM
OVCAR-4 ovarian
  GI50: 2.51 µM
  TGI: 7.87 µM and 10.1 µM
OVCAR-8 ovarian
  GI50: 0.704 µM and 0.602 µM
  TGI: 11.8 µM and 26.9 µM
SNB-19 CNS
  GI50: 0.649 µM
  TGI: 23.7 µM and 72.3 µM
T-47D breast
  GI50: 0.446 µM
  TGI: 18.6 µM and 12.9 µM
UO-31 renal
  GI50: 8.32 µM
  TGI: 17.4 µM and 15.6 µM

## CCn1c(-c2c(Cl)cc(O)cc2Cl)cc2c(Cl)cc(O)cc21
A498 renal
  TGI: 30.1 µM
HCT-15 colon
  TGI: 12.8 µM
HL-60(TB) leukemia
  TGI: 26.2 µM
MALME-3M melanoma
  TGI: 39.3 µM
MDA-MB-435
  TGI: 13 µM
OVCAR-4 ovarian
  TGI: 21.7 µM
OVCAR-8 ovarian
  TGI: 18.7 µM
SNB-19 CNS
  TGI: 28.3 µM
T-47D breast
  TGI: 27.4 µM
UO-31 renal
  TGI: > 100 µM

## COc1ccc(C(C#N)=C2C=CC(=NO)C=C2)cc1
A498 renal
  GI50: 6.39 µM
  TGI: 25.4 µM
HCT-15 colon
  GI50: 11.7 µM
  TGI: 26.1 µM
HL-60(TB) leukemia
  GI50: 3.08 µM
  TGI: 57.5 µM
MALME-3M melanoma
  GI50: 12.4 µM
  TGI: 27.5 µM
MDA-MB-435
  GI50: 2.23 µM
  TGI: 5.8 µM
OVCAR-4 ovarian
  GI50: 5.85 µM
  TGI: 19.6 µM
OVCAR-8 ovarian
  GI50: 10.2 µM
  TGI: 22.9 µM
SNB-19 CNS
  GI50: 16.1 µM
  TGI: 32.1 µM
T-47D breast
  GI50: 1.76 µM
  TGI: 5.36 µM
UO-31 renal
  GI50: 4.23 µM
  TGI: 14.6 µM
